Assay results as given in patent US20260125359A1, “HETEROARYL COMPOUNDS AS MULTI-TARGET PROTEIN KINASE INHIBITORS” (FUJIAN HAIXI PHARMACEUTICALS CO., LTD., priority 2023, published 2026).
pIC50: −log10 of the molar value.

Tested on: M-NFS-60 cells
Test: M-NFS-60 cell in vitro assay (CCK, 48 h, M-CSF factor medium)
Type: cell-based
Conditions: M-NFS-60 cells; read-out: M-NFS-60cellassay IC50
Method: To determine the inhibitory activity of compounds on M-NFS-60 cells.
• M-NFS-60 cell line (ATCC, Cat. No.: CRL-1838) • RPMI-1640 medium (Gibco, domestic subpackage, Cat. No.: C11875500BT) • Recombinant Mouse CSF1/M-CSF (Sino Biological Inc., Cat. No.: 51112-MNAH) • PAN/Serum (BioTECH, Cat. No.: P30-2602) • Trypsin/0.05% Trypsin-EDTA (Gibco, Cat. No.: 25300-062) • 0.4% Trypan Blue (Sigma, Cat. No.: T8154-20 ml) • Penicillin-Streptomycin (Hyclone, Cat. No.: SV30010) • DMSO (Solarbio, Cat. No.: D8371) • PBS (Solarbio, Cat. No.: P1020) • CCK (AbMole BioScience, Cat. No.: M4839-500Tests)
• 1) M-CSF factor stock solution: take 10 μg of powdered m-CSF factor, add 0.4 ml of saline, formulate 25 ug/ml and store at −80° C. • 2) M-CSF factor (25 ng/ml) medium: • 1640 (Gibco)+10% PAN+100×Penicillin-Streptomycin+100×M-CSF stock solution • 3) Complete medium: • 1640 (Gibco)+10% PAN+100×Penicillin-Streptomycin • 4) Compound preparation: 2-3 mg of the compound was added to DMSO to formulate a 30 mM stock solution, −80° C. refrigerator storage
• 1) Cell resuscitation: the frozen cells in the cryovial were thawed rapidly by shaking in a 37° C. water bath, then 4 mL of medium was added. After mixing evenly, they were centrifuged at 125×g for 5 min, and the supernatant was discarded. The cells were resuspended and transferred to the culture flasks, and were cultured in a 5% CO2 fully saturated humidity incubator. • 2) Cell passaging: M-NFS-60 cells are semi-suspension cells, which were collected directly in a 15 mL centrifuge tube, centrifuged at 125×g for 5 min. and the supernatant was discarded. The cells were resuspended and passaged into new culture flasks at a ratio of 1:5 to 1:10. • 3) After the newly resuscitated cells were passaged 1-2 times for cell stabilization, compound inhibition assays were started when the cells were in the logarithmic growth phase. • (a) Cell collection and counting: the same as the cell passaging step, centrifuge in two tubes, one tube with M-CSF factor medium to resuspend the cells, the other tube with complete medium to resuspend the cells. Take 10 μL of cell suspension in each tube, and count the cells by Tepan blue staining. • (b) Dilute the cell solution according to the concentration of inoculated cells respectively, the concentration of M-NFS-60 cells inoculated with factor was 5.56×10^4 cells/mL, and the concentration of inoculated without factor was 5×10^4 cells/mL. • (c) Seed plate: 384 well plate inoculated with M-NFS-60 cells, 36 uL/well, triplicate wells, the number of inoculated cells was equivalent to 2000 cells/well, set with blank control, factor free negative control, normal control, DMSO control and experimental wells. The cells were placed in a 5% CO2 fully saturated humidity incubator for 4 h. • (d) Sampling compounds: 96 well plates were used for compound preparation. The compound solution prepared in advance was diluted to corresponding gradient concentration with DMSO. An appropriate amount of the diluted solution in the previous step was added to an equal volume of factor containing medium. The 96 well plates were centrifuged at 1000 rpm for 5 min, which played the role of defoaming and spinning down droplets and condensation. Remove the 384 well plate from the incubator, add the diluted compound solution into each well sequentially, 4 μL/well; DMSO wells and normal wells were added with corresponding factor containing medium, 4 μL/well. Then it was put into CO2 incubator for 48 h. • (e) After incubation for 48 h, CCK was added to each well, 4 uL, and the plates were placed in the incubator for another 2 h, and then the OD (optical density) value at 450 nm was measured by microplate reader.
The IC50 values for each test compound were fitted using professional graphing and analysis software.

First: Cn1ncc2ncc(O[C@H]3CCc4c(Nc5cc(C(C)(C)C)on5)cccc43)cc21 [Compound 95, (S)-5-(tert-butyl)-N-(1-((1-methyl-1H-pyrazolo[4,3-b]pyridin-6-yl)oxy)-2,3-dihydro-1H-inden-4-yl) isoxazol-3-amine]
Second: Cn1cc2ncc(N[C@H]3CCc4c(Nc5cc(C(C)(C)C)on5)cccc43)cc2n1 [Compound 90, (S)—N^4-(5-(tert-butyl)isoxazol-3-yl)-N^1-(2-methyl-2H-pyrazolo[4,3-b]pyridin-6-yl)-2,3-dihydro-1H-indene-1,4-diamine]
The pIC50 of the first is lower: 6.30 to 6.70 for the first, > 7.30 for the second.

First: Cn1cc(-c2cncc(O[C@H]3CCc4c3ccc(F)c4C(=O)Nc3cccc(C4CC4)c3)c2)cn1 [Compound 53, (S)—N-(3-cyclopropylphenyl)-5-fluoro-1-((5-(1-methyl-1H-pyrazol-4-yl)pyridin-3-yl)oxy)-2,3-dihydro-1H-indene-4-carboxamide]
Second: Cn1cc(-c2cncc(N[C@H]3CCc4c(C(=O)Nc5cccc(C6CC6)c5)cccc43)c2)cn1 [Compound 14aw]
The pIC50 of the first is lower: 6.70 to 7.30 for the first, > 7.30 for the second. The second is the more potent here.

Compared with `CN1CCN(Cc2cccc(NC(=O)c3cccc4c3CC[C@@H]4Nc3cncc(-c4cnn(C)c4)c3)c2)CC1` [Compound 14ar], `Cn1cc(-c2cncc(N[C@H]3CCc4c(NC(=O)c5cccc(CN6CCCCC6)c5)cccc43)c2)cn1` [Compound 28a] is lower in pIC50: 6.30 to 6.70 for the first, < 6.30 for the second. The first is the more potent here.

`COc1cc(NC(=O)c2cccc3c2CC[C@@H]3Nc2cncc(-c3cnn(C)c3)c2)ccc1F` [Compound 14af] and `Cn1cc(-c2cncc(N[C@H]3CCc4c(C(=O)Nc5ccc(Cl)c(C(F)(F)F)c5)cccc43)c2)cn1` [Compound 14ad] cannot be ordered by pIC50: > 7.30 for the first, > 7.30 for the second.

`Cn1cc(-c2cnc(N)c(O[C@H]3CCc4c(NC(=O)c5cccc(C6CC6)c5)cccc43)c2)cn1` [Compound 3g] and `Cc1ccc(C(=O)Nc2cccc3c2CC[C@@H]3Oc2cc(-c3cnn(C)c3)cnc2N)cc1C` [Compound 3f] cannot be ordered by pIC50: > 7.30 for the first, > 7.30 for the second.

`Cn1cc(-c2cncc(N[C@H]3CCc4c(C(=O)NC(C)(C)C(F)(F)F)cccc43)n2)cn1` [Compound 27m] and `Cn1cc(-c2cncc(N[C@H]3CCc4c(C(=O)N5CCCCC5)cccc43)n2)cn1` [Compound 27b] cannot be ordered by pIC50: < 6.30 for the first, < 6.30 for the second.

`Cn1ncc2ncc(N[C@H]3CCc4c(C(=O)Nc5cccc(C6CC6)c5)cccc43)nc21` [Compound 88, (S)—N-(3-cyclopropylphenyl)-1-((1-methyl-1H-pyrazolo[3,4-b]pyrazin-6-yl)amino)-2,3-dihydro-1H-indene-4-carboxamide] and `O=C(Nc1cccc(C2CC2)c1)c1cccc2c1CC[C@@H]2Nc1cnc2cn[nH]c2c1` [Compound 97, (S)-1-((1H-pyrazolo[4,3-b]pyridin-6-yl)amino)-N-(3-cyclopropylphenyl)-2,3-dihydro-1H-indene-4-carboxamide] cannot be ordered by pIC50: > 7.30 for the first, > 7.30 for the second.

`CC(C)(CO)c1cc(Nc2cccc3c2CC[C@@H]3Nc2cncc(Cl)c2)no1` [Compound 42c] and `Cn1cc(-c2cncc(N[C@H]3CCc4c(Nc5cc(C(C)(C)C)on5)ccc(F)c43)c2)cn1` [Compound 42s] cannot be ordered by pIC50: > 7.30 for the first, > 7.30 for the second.

`Cn1ncc2ncc(O[C@H]3CCc4c(C(=O)Nc5cccc(C6CC6)c5)ccc(F)c43)cc21` [Compound 85, (S)—N-(3-cyclopropylphenyl)-7-fluoro-1-((1-methyl-1H-pyrazolo[4,3-b]pyridin-6-yl)oxy)-2,3-dihydro-1H-indene-4-carboxamide] and `CN(c1cnc2cnn(C)c2c1)[C@H]1CCc2c(C(=O)Nc3cccc(C4CC4)c3)cccc21` [Compound 80a] cannot be ordered by pIC50: > 7.30 for the first, > 7.30 for the second.

`Cc1ncc(-c2cnn(C)c2)cc1O[C@H]1CCc2c(C(=O)Nc3ccc(C(F)(F)F)cc3)cccc21` [Compound 19w] and `CN1Cc2ccc(NC(=O)c3cccc4c3CC[C@@H]4Oc3cncc(-c4cnn(C)c4)c3)cc2C1` [Compound 19v] fall in the same range of pIC50: 6.30 to 6.70 for the first, 6.30 to 6.70 for the second.

First: Cn1cc(-c2cncc(NC3COc4c(NC(=O)c5ccc(C(F)(F)F)cc5)cccc43)c2)cn1 (stereo not drawn) [Compound 47, N-(3-((5-(1-methyl-1H-pyrazol-4-yl)pyridin-3-yl)amino)-2,3-dihydrobenzofuran-7-yl)-4-(trifluoromethyl)benzamide]
Second: Cn1cc(-c2cncc(N[C@H]3CCc4c(Nc5cc(C(F)(F)F)nn5C)cccc43)c2)cn1 [Compound 42q]
The pIC50 of the first is higher: 6.70 to 7.30 for the first, < 6.30 for the second. The first is the more potent here.

`Nc1ncc(Cl)cc1O[C@H]1CCc2c(C(=O)Nc3cccc(C4CC4)c3)cccc21` [Compound 7, (S)-1-((2-amino-5-chloropyridin-3-yl)oxy)-N-(3-cyclopropylphenyl)-2,3-dihydro-1H-indene-4-carboxamide] and `Cc1cccc(NC(=O)c2cccc3c2CC[C@@H]3Nc2cncc(Cl)n2)c1` [Compound 33c, (S)-1-((6-chloropyrazin-2-yl)amino)-N-(m-tolyl)-2,3-dihydro-1H-indene-4-carboxamide] cannot be ordered by pIC50: > 7.30 for the first, > 7.30 for the second.

First: COc1cccc(C(=O)Nc2cccc3c2OCCC3Oc2cc(Br)cnc2N)c1 (stereo not drawn) [Compound 2b]
Second: Cc1cccc(C(=O)Nc2cccc3c2CCC3Nc2cncc(Br)c2)c1 (stereo not drawn) [Compound 8d, N-(1-((5-bromopyridin-3-yl)amino)-2,3-dihydro-1H-inden-4-yl)-3-methylbenzamide]
The pIC50 of the first is lower: < 6.30 for the first, 6.70 to 7.30 for the second. The second is the more potent here.

First: CN1CCN(c2cccc(C(=O)Nc3cccc4c3CC[C@@H]4Nc3cncc(-c4cnn(C)c4)n3)c2)CC1 [Compound 25e]
Second: Cc1cccc(C(=O)Nc2cccc3c2CC[C@H]3Nc2cncc(-c3cnn(C)c3)n2)c1 [Compound 25b]
The pIC50 of the first is higher: 6.70 to 7.30 for the first, < 6.30 for the second. The first is the more potent here.

First: CN1CCc2ccc(NC(=O)c3cccc4c3CC[C@@H]4N(C)c3cncc(-c4cnn(C)c4)c3)cc2C1 [Compound 22c]
Second: CN1CCc2c(cccc2NC(=O)c2cccc3c2CC[C@@H]3Oc2cncc(-c3cnn(C)c3)c2)C1 [Compound 19g]
The pIC50 of the first is higher: 6.70 to 7.30 for the first, < 6.30 for the second.

First: CN(C)Cc1cc(NC(=O)c2cccc3c2CC[C@@H]3N(C)c2cnc3cnn(C)c3c2)ccc1F [Compound 80f]
Second: COc1cc(NC(=O)c2cccc3c2CC[C@@H]3N(C)c2cnc3cnn(C)c3c2)ccc1F [Compound 80d]
The pIC50 of the first is lower: 6.70 to 7.30 for the first, > 7.30 for the second.

`CN(C)CCOc1cccc(NC(=O)c2cccc3c2CC[C@@H]3Oc2cnc3cnn(C)c3c2)c1` [Compound 76ap] and `CN(C)Cc1cccc(NC(=O)c2cccc3c2CC[C@@H]3Oc2cncc(-c3cnn(C)c3)c2)c1` [Compound 19e] fall in the same range of pIC50: 6.70 to 7.30 for the first, 6.70 to 7.30 for the second.

Compared with `CN(c1cncc(-c2cnn(C)c2)c1)[C@H]1CCc2c(Nc3cc(C(C)(C)C)on3)cccc21` [Compound 49, (S)—N^4-(5-(tert-butyl)isoxazol-3-yl)-N^1-methyl-N1-(5-(1-methyl-1H-pyrazol-4-yl)pyridin-3-yl)-2,3-dihydro-1H-indene-1,4-diamine], `Cc1cccc(C(=O)Nc2cc(F)cc3c2CC[C@@H]3Nc2cncc(-c3cnn(C)c3)c2)c1` [Compound 46a] is higher in pIC50: < 6.30 for the first, > 7.30 for the second. The second is the more potent here.

`Cn1cc2ncc(N[C@H]3CCc4c(Nc5cc(C67CC(C6)C7)on5)cccc43)cc2n1` [Compound 91r] and `Cn1cc2ncc(N[C@H]3CCc4c(Nc5noc(C(C)(C)C)n5)cccc43)cc2n1` [Compound 93i] cannot be ordered by pIC50: > 7.30 for the first, > 7.30 for the second.

First: CN(C)Cc1ccc(NC(=O)c2cccc3c2CC[C@@H]3N(C)c2cnc3cnn(C)c3c2)cc1 [Compound 80g]
Second: Cn1cc(-c2cncc(O[C@H]3CCc4c(C(=O)Nc5ccc6c(c5)CNC6)cccc43)c2)cn1 [Compound 19u]
The pIC50 of the first is higher: 6.30 to 6.70 for the first, < 6.30 for the second. The first is the more potent here.

Compared with `Cn1cc2ncc(O[C@H]3CCc4c(C(=O)Nc5cccc(C(F)(F)F)c5F)cccc43)cc2n1` [Compound 76av], `Cn1cc(-c2cncc(N[C@H]3CCc4c(Nc5nc(C6CC6)cs5)cccc43)n2)cn1` [Compound 36b] is lower in pIC50: > 7.30 for the first, 6.70 to 7.30 for the second.
